Laboratory results taken from US11780893B2, “Kv1.3 blockers” (Zealand Pharma A/S, priority 2019, dated 2023).
Bridge positions count the residues as written; N and C are the ends. Square brackets hold non-standard residues; d marks the D form. Peptide text beside a SMILES is read from it. Nle = CCCC[C@H](N)C(=O)O

Target: T1, human Kv1.3 voltage-gated K+ channel (Homo sapiens, UniProt P22001)
T1 construct: host or cells: CHO-DUKX
Assay: cell-based
Conditions: inhibition of thallium flux, CHO-DUKX cells with human Kv1.3; read-out: IC50

T1 sequence (P22001 whole entry): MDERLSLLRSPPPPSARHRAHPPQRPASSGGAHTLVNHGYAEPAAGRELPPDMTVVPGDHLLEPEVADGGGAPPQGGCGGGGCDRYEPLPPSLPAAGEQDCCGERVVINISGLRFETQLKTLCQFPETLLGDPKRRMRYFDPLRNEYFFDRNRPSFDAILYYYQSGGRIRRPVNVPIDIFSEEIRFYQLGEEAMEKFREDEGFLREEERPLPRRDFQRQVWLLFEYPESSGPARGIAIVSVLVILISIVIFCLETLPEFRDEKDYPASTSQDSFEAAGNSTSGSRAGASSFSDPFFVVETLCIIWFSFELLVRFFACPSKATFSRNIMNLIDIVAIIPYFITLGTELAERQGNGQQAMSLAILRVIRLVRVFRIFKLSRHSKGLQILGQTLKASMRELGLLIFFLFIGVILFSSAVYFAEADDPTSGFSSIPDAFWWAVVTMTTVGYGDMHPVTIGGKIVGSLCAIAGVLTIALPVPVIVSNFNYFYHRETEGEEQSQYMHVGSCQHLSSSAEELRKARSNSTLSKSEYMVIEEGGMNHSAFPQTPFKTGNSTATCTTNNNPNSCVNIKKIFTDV

SMILES	IC50
CCCC[C@H](NC(=O)[C@@H]1CCCN1)C(=O)N[C@@H](CCC(=O)O)C(=O)N[C@@H](CCCC)C(=O)N[C@@H](CCCNC(=N)N)C(=O)N[C@H]1CSSC[C@@H]2NC(=O)[C@H](CCCCN)NC(=O)CNC(=O)[C@H](Cc3ccccc3)NC(=O)[C@H]([C@@H](C)CC)NC(=O)[C@H](CO)NC(=O)CNC(=O)[C@H]([C@@H](C)CC)NC(=O)[C@H](C)NC(=O)[C@H](C)NC(=O)[C@H](CC(C)C)NC(=O)[C@@H]3CSSC[C@@H](C(=O)N[C@@H](Cc4ccc(O)cc4)C(=O)N4CCC[C@H]4C(=O)N[C@@H](CCCNC(=N)N)C(=O)N[C@@H](C)C(=O)N[C@@H](CCCCN)C(=O)O)NC(=O)[C@H](CCCCN)NC(=O)[C@H](CSSC[C@H](NC(=O)[C@H](CCC(=O)O)NC(=O)[C@H](C(C)C)NC(=O)[C@H](CO)NC(=O)[C@H](C)NC(=O)[C@H](CO)NC1=O)C(=O)N[C@@H](CCCCN)C(=O)N[C@@H](CCC(N)=O)C(=O)N[C@@H](CCCCN)C(=O)N3)NC(=O)[C@H](CCCCN)NC(=O)[C@H](CCCCN)NC(=O)[C@H](CC(N)=O)NC(=O)[C@H](CCCC)NC2=O [Compound 130] (H-P[Nle]E[Nle]RCSASVECKQKCLAAIGSIFGKC[Nle]NKKCKCYPRAK-OH; disulfide 6-27, 12-32, 16-34)	0.529 nM
CCCC[C@H](NC(=O)[C@@H]1CCCN1)C(=O)N[C@@H](CCC(=O)O)C(=O)N[C@@H](CCCC)C(=O)N[C@@H](CCCNC(=N)N)C(=O)N[C@H]1CSSC[C@@H]2NC(=O)[C@H](CCCCN)NC(=O)CNC(=O)[C@H](Cc3ccccc3)NC(=O)[C@H]([C@@H](C)CC)NC(=O)[C@H](CO)NC(=O)CNC(=O)[C@H]([C@@H](C)CC)NC(=O)[C@H](C)NC(=O)[C@H](C)NC(=O)[C@H](CC(C)C)NC(=O)[C@@H]3CSSC[C@@H](C(=O)N[C@@H](Cc4ccc(O)cc4)C(=O)N4CCC[C@H]4C(=O)N[C@@H](CCCNC(=N)N)C(=O)O)NC(=O)[C@H](CCCCN)NC(=O)[C@H](CSSC[C@H](NC(=O)[C@H](CCC(=O)O)NC(=O)[C@H](C(C)C)NC(=O)[C@H](CO)NC(=O)[C@H](CC(C)C)NC(=O)[C@H](CO)NC1=O)C(=O)N[C@@H](CCCCN)C(=O)N[C@@H](CCC(N)=O)C(=O)N[C@@H](CCCCN)C(=O)N3)NC(=O)[C@H](CCCCN)NC(=O)[C@H](CCCCN)NC(=O)[C@H](CC(N)=O)NC(=O)[C@H](CCCC)NC2=O [Compound 136] (H-P[Nle]E[Nle]RCSLSVECKQKCLAAIGSIFGKC[Nle]NKKCKCYPR-OH; disulfide 6-27, 12-32, 16-34)	6.24 nM
CCCC[C@H](NC(=O)[C@@H]1CCCN1)C(=O)N[C@@H](CCC(=O)O)C(=O)N[C@@H](CCCC)C(=O)N[C@@H](CCCNC(=N)N)C(=O)N[C@H]1CSSC[C@@H]2NC(=O)[C@H](CCCCN)NC(=O)CNC(=O)[C@H](Cc3ccccc3)NC(=O)[C@H]([C@@H](C)CC)NC(=O)[C@H](CO)NC(=O)CNC(=O)[C@H]([C@@H](C)CC)NC(=O)[C@H](C)NC(=O)[C@H](C)NC(=O)[C@H](CC(C)C)NC(=O)[C@@H]3CSSC[C@@H](C(=O)N[C@@H](Cc4ccc(O)cc4)C(=O)N4CCC[C@H]4C(=O)N[C@@H](CCCNC(=N)N)C(=O)N[C@@H](Cc4ccccc4)C(=O)N[C@@H](CCC(=O)O)C(=O)O)NC(=O)[C@H](CCCCN)NC(=O)[C@H](CSSC[C@H](NC(=O)[C@H](CCC(=O)O)NC(=O)[C@H](C(C)C)NC(=O)[C@H](CO)NC(=O)[C@H](C)NC(=O)[C@H](CO)NC1=O)C(=O)N[C@@H](CCCCN)C(=O)N[C@@H](CCC(N)=O)C(=O)N[C@@H](CCCCN)C(=O)N3)NC(=O)[C@H](CCCCN)NC(=O)[C@H](CCCCN)NC(=O)[C@H](CC(N)=O)NC(=O)[C@H](CCCC)NC2=O [Compound 128] (H-P[Nle]E[Nle]RCSASVECKQKCLAAIGSIFGKC[Nle]NKKCKCYPRFE-OH; disulfide 6-27, 12-32, 16-34)	7.18 nM
CCCC[C@H](NC(=O)[C@@H]1CCCN1)C(=O)N[C@@H](CCC(=O)O)C(=O)N[C@@H](CCCC)C(=O)N[C@@H](CCCNC(=N)N)C(=O)N[C@H]1CSSC[C@@H]2NC(=O)[C@H](CCCCN)NC(=O)CNC(=O)[C@H](Cc3ccccc3)NC(=O)[C@H]([C@@H](C)CC)NC(=O)[C@H](CO)NC(=O)CNC(=O)[C@H]([C@@H](C)CC)NC(=O)[C@H](C)NC(=O)[C@H](C)NC(=O)[C@H](CC(C)C)NC(=O)[C@@H]3CSSC[C@@H](C(=O)N[C@@H](Cc4ccc(O)cc4)C(=O)N4CCC[C@H]4C(=O)N[C@@H](CCCNC(=N)N)C(=O)O)NC(=O)[C@H](CCCCN)NC(=O)[C@H](CSSC[C@H](NC(=O)[C@H](CCC(=O)O)NC(=O)[C@H](C(C)C)NC(=O)[C@H](CO)NC(=O)[C@H](C)NC(=O)[C@H](CCC(=O)O)NC1=O)C(=O)N[C@@H](CCCCN)C(=O)N[C@@H](CCC(N)=O)C(=O)N[C@@H](CCCCN)C(=O)N3)NC(=O)[C@H](CCCCN)NC(=O)[C@H](CCCCN)NC(=O)[C@H](CC(N)=O)NC(=O)[C@H](CCCC)NC2=O [Compound 142] (H-P[Nle]E[Nle]RCEASVECKQKCLAAIGSIFGKC[Nle]NKKCKCYPR-OH; disulfide 6-27, 12-32, 16-34)	1.5 nM
CCCC[C@H](NC(=O)[C@H](CC(=O)O)NC(=O)[C@H](CCCC)NC(=O)[C@@H](N)CO)C(=O)N[C@@H](CCCNC(=N)N)C(=O)N[C@H]1CSSC[C@@H]2NC(=O)[C@H](CCCCN)NC(=O)CNC(=O)[C@H](Cc3ccccc3)NC(=O)[C@H]([C@@H](C)CC)NC(=O)[C@H](CO)NC(=O)CNC(=O)[C@H]([C@@H](C)CC)NC(=O)[C@H](C)NC(=O)[C@H](CCCCN)NC(=O)[C@H](CC(C)C)NC(=O)[C@@H]3CSSC[C@@H](C(=O)N[C@@H](Cc4ccc(O)cc4)C(=O)N4CCC[C@H]4C(=O)N[C@@H](CCCNC(=N)N)C(N)=O)NC(=O)[C@H](CCCCN)NC(=O)[C@H](CSSC[C@H](NC(=O)[C@H](CCC(=O)O)NC(=O)[C@H](C(C)C)NC(=O)[C@H](C(C)C)NC(=O)[C@H](C)NC(=O)[C@H](CO)NC1=O)C(=O)N[C@@H](CCCCN)C(=O)N[C@@H](CCC(N)=O)C(=O)N[C@@H](CCCCN)C(=O)N3)NC(=O)[C@H](CCCCN)NC(=O)[C@H](CCCCN)NC(=O)[C@H](CC(N)=O)NC(=O)[C@H](CCSC)NC2=O [Compound 90] (H-S[Nle]D[Nle]RCSAVVECKQKCLKAIGSIFGKCMNKKCKCYPR-NH2; disulfide 6-27, 12-32, 16-34)	0.19 nM
CC[C@H](C)[C@@H]1NC(=O)[C@H](CO)NC(=O)CNC(=O)[C@H](CCCNC(=N)N)NC(=O)[C@H](C)NC(=O)[C@H](CCCCN)NC(=O)[C@H](CC(C)C)NC(=O)[C@@H]2CSSC[C@@H](C(=O)N[C@@H](Cc3ccc(O)cc3)C(=O)N3CCC[C@H]3C(=O)N[C@@H](CCCNC(=N)N)C(N)=O)NC(=O)[C@H](CCCCN)NC(=O)[C@@H]3CSSC[C@H](NC(=O)[C@H](CCC(=O)O)NC(=O)[C@H](C(C)C)NC(=O)[C@H](CO)NC(=O)[C@H](C)NC(=O)[C@H](CO)NC(=O)[C@@H](NC(=O)[C@H](CCCNC(=N)N)NC(=O)[C@H](CCSC)NC(=O)[C@H](CC(=O)O)NC(=O)[C@H](CCSC)NC(=O)[C@@H](N)CC(N)=O)CSSC[C@H](NC(=O)[C@H](CCCCN)NC(=O)CNC(=O)[C@H](Cc4ccccc4)NC1=O)C(=O)N[C@@H](CCSC)C(=O)N[C@@H](CC(N)=O)C(=O)N[C@@H](CCCCN)C(=O)N[C@@H](CCCCN)C(=O)N3)C(=O)N[C@@H](CCCCN)C(=O)N[C@@H](CCC(N)=O)C(=O)N[C@@H](CCCCN)C(=O)N2 [Compound 60] (H-NMDMRCSASVECKQKCLKARGSIFGKCMNKKCKCYPR-NH2; disulfide 6-27, 12-32, 16-34)	0.035 nM
CCCC[C@H](NC(=O)[C@@H]1CCCN1)C(=O)N[C@@H](CCC(=O)O)C(=O)N[C@@H](CCCC)C(=O)N[C@@H](CCCNC(=N)N)C(=O)N[C@H]1CSSC[C@@H]2NC(=O)[C@H](CCCCN)NC(=O)CNC(=O)[C@H](Cc3ccccc3)NC(=O)[C@H]([C@@H](C)CC)NC(=O)[C@H](CO)NC(=O)CNC(=O)[C@H]([C@@H](C)CC)NC(=O)[C@H](C)NC(=O)[C@H](C)NC(=O)[C@H](CC(C)C)NC(=O)[C@@H]3CSSC[C@@H](C(=O)N[C@@H](Cc4ccc(O)cc4)C(=O)N4CCC[C@H]4C(=O)N[C@@H](CCCNC(=N)N)C(=O)O)NC(=O)[C@H](CCCCN)NC(=O)[C@H](CSSC[C@H](NC(=O)[C@H](CCC(=O)O)NC(=O)[C@H](C(C)C)NC(=O)[C@H](CO)NC(=O)[C@H](C)NC(=O)[C@H](Cc4ccccc4)NC1=O)C(=O)N[C@@H](CCCCN)C(=O)N[C@@H](CCC(N)=O)C(=O)N[C@@H](CCCCN)C(=O)N3)NC(=O)[C@H](CCCCN)NC(=O)[C@H](CCCCN)NC(=O)[C@H](CC(N)=O)NC(=O)[C@H](CCCC)NC2=O [Compound 143] (H-P[Nle]E[Nle]RCFASVECKQKCLAAIGSIFGKC[Nle]NKKCKCYPR-OH; disulfide 6-27, 12-32, 16-34)	0.316 nM
CCCC[C@H](NC(=O)[C@@H]1CCCN1)C(=O)N[C@@H](CCC(=O)O)C(=O)N[C@@H](CCCC)C(=O)N[C@@H](CCCNC(=N)N)C(=O)N[C@H]1CSSC[C@@H]2NC(=O)[C@H](CCCCN)NC(=O)CNC(=O)[C@H](Cc3ccccc3)NC(=O)[C@H]([C@@H](C)CC)NC(=O)[C@H](CO)NC(=O)CNC(=O)[C@H]([C@@H](C)CC)NC(=O)[C@H](C)NC(=O)[C@H](C)NC(=O)[C@H](CC(C)C)NC(=O)[C@@H]3CSSC[C@@H](C(=O)N[C@@H](Cc4ccc(O)cc4)C(=O)N4CCC[C@H]4C(=O)N[C@@H](CCCNC(=N)N)C(=O)N[C@@H](CCC(=O)O)C(=O)O)NC(=O)[C@H](CCCCN)NC(=O)[C@H](CSSC[C@H](NC(=O)[C@H](CCC(=O)O)NC(=O)[C@H](C(C)C)NC(=O)[C@H](CO)NC(=O)[C@H](C)NC(=O)[C@H](CO)NC1=O)C(=O)N[C@@H](CCCCN)C(=O)N[C@@H](CCC(N)=O)C(=O)N[C@@H](CCCCN)C(=O)N3)NC(=O)[C@H](CCCCN)NC(=O)[C@H](CCCCN)NC(=O)[C@H](CC(N)=O)NC(=O)[C@H](CCCC)NC2=O [Compound 126] (H-P[Nle]E[Nle]RCSASVECKQKCLAAIGSIFGKC[Nle]NKKCKCYPRE-OH; disulfide 6-27, 12-32, 16-34)	6.49 nM
